Data set [1] has as its system cultured wt neurons. Description: Cell viability MTT assay in cultured wt neurons. The format is cell-based, mouse. Conditions: for neuronal death upon SM16:0 addition in the presence of acid and neutral sphingomyelinase inhibitors (MTT): wt neurons, SM16:0 plus desipramine or GW4869. Here is the method:
Cell viability was evaluated using the MTT (methylthiazolyldiphenyltetrazoliumbromide, Sigma) assay. Briefly, 3×10^4 neurons were plated in 96-well plates coated with poly-L-lysine (0.1 mg/ml). At DIV14 1 mM MTT was added to the wells and incubated for 4 h. Then, the supernatant was discarded, and […] DMSO was added to the wells. The absorbance was measured at 570 nm using a microplate reader (FLUOstar Optima, BMG Labtech). Cells treated with DMSO were used as a control.
On the technique in general: Formazan colour is commonly taken as a measure of viable cells.

Data set [2] has as its system cultured wt neurons. Description: pSM16:0 co-localization with subcellular markers (Mander's coefficient). The format is cell-based, mouse. As for the experimental part: Cultured neurons at 14 DIV were fixed in 4% PFA 0.12M sucrose and incubated overnight with primary antibodies and subsequently for 1 h with Alexa 488- or Alexa 555-conjugated secondary antibodies. Images were taken using a confocal microscope LSM710 (Zeiss). The Mander's coefficient for pSM 16:0 co-localization with Thy1; PSD95; TOM20; EEA1; LAMP1; GM130 was determined by using the JACOP plugin. Mouse brains were dissected, fixed in 4% PFA 0.12M sucrose, and cryoprotected for 24 h in 30% sucrose phosphate buffer saline. The tissue was then frozen in Tissue-Tek optimal cutting temperature compound (Sakura Finetek, Torrance, CA, USA), and 40-μm sagittal sections were obtained with a cryostat (CM 1950 Ag Protect freezing: Leica, Solms, Germany). The sections were incubated overnight at 4° C. with the primary antibodies and then with the corresponding Alexa-conjugated secondary antibodies. Finally, the sections were incubated for 10 min with DAPI (Merck), washed, and mounted with ProLong Gold Antifade (Thermo Fisher). Images were obtained on a confocal LSM710 microscope (Zeiss) and quantified using the Fiji software.
Cultured neurons were treated with 40 μM propargyl SM (pSM 16:0) (Merck; #860711P) for 48 hours at DIV12. After immunofluorescence protocol, explained above, click reaction was performed for the attachment of fluorescent reporter (Sulfo-Cy3-Azide; Jena Biosciences; #CLK-AZ119-1) to pSM 16:0.
The surprising effects of SM16:0 on lysosomes compared to other SM species supported a hypothesis that this lipid targets these organelles. To explore this possibility, we took advantage of the existence of the analogue propargyl SM16:0 (pSM16:0), which is linked to an alkyne group and can be traced by click chemistry and fluorescence microscopy. We added pSM16:0 for 48 hours to cultured wt neurons and performed double immunofluorescence with markers of different cellular compartments.

For the next data set, the target named is T1, ASM (Mus musculus, UniProt Q04519).
T1 sequence (Q04519 45-627): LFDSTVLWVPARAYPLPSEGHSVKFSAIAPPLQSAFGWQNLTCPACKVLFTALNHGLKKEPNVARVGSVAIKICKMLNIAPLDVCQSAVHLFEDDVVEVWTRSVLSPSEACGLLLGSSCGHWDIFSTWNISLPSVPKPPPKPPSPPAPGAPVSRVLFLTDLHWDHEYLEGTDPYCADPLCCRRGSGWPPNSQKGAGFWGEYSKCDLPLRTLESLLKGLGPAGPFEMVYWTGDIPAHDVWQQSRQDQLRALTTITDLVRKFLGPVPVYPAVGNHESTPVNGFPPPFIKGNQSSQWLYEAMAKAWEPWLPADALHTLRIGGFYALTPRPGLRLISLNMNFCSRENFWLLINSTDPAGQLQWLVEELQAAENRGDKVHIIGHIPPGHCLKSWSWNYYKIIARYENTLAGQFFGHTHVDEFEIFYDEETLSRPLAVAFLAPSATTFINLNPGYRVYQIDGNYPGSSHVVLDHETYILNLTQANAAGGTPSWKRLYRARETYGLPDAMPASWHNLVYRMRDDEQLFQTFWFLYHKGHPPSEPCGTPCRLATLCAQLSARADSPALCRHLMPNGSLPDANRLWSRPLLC
The data set can be described thus: Enzymatic assay of SMb or SM16:0 metabolized by ASM activity. It counts as biochemical. Conditions: fluorescence per nmol metabolized, slope analysis. As for the experimental part:
SM levels were measured according to protocols modified from (Hojati and Jiang, 2006). Lipid extracts were dried in the presence of Thesit, and SM was converted into peroxide by incubation with sphingomyelinase (Smase C from Merck; #S9396 or ASM from Sino Biological; #50749-M08B), alkaline phosphatase, and choline oxidase. Peroxide was measured fluorimetrically in the presence of peroxidase and homovanillic acid (Van Veldhoven et al., 1997).

A further data set deals with wt neurons. Conditions: cultured neurons.
The test system of data set [3] is Cortical neurons from wt mice. The data set can be described thus: LC/MS quantification of SM in cultured wt neurons incubated with SM species. The format is cell-based, mouse. Conditions: for increase of total SM levels: wt cortical neurons cultured 48 hr with 40 μM; for relative abundance of the added SM species, of the total SM: wt cortical neurons, 48 hr, 40 μM. As for the experimental part: Sample analysis was performed in an Acquity ultraperformance liquid chromatography (UPLC) system (Waters, USA) connected to a time-of-flight (TOF; LCT Premier XE) detector controlled with Waters/Micromass MassLynx software.
A study was done to determine the impact of the different increments of individual SM species in ASMko mice and cells on their specific accumulation in neurons. Cortical neurons from wt mice were cultured for 48 hr with 40 μM of either total SM from bovine brain (SMb, containing similar SM species proportions than total SM from mouse brain); or individual SM16:0; SM18:0 or SM24:1. […] LC/MS quantification assessed the effect of each treatment on the relative abundance of the added SM species. Incubation with SM16:0 and SM18:0 drastically raised the relative abundance of each of these species to 88% and 82% of the total (FIG. 2B). Incubation with SM24:1 increased the prevalence of this species to 30%, while addition of SMb reduced the relative abundance of SM18:0 and SM16:0 by 4% and 15%, respectively, while increased that of SM24:1 by 8% (FIG. 2B).

Data set [4] deals with cultured wt neurons. Description: LAMP1 surface staining in non-permeabilized neurons (lysosomal exocytosis). It counts as cell-based, mouse. As for the experimental part:
ASMko and wt cultured neurons at 14DIV were washed with PBS and fixed with 2% PFA in PBS and 0.12 M sucrose for 8 min. Immunofluorescence was performed using a conventional protocol in the absence of detergent to avoid cell permeabilization.

Data set [5] relates to wt primary cultured neurons. Conditions: not told.
Experimental: Lysotracker Red DND99 (Thermo Fisher Scientific) was added to wt primary cultured neurons at 1 μM and incubated for 20 min at 37° C. Cells were then fixed in 4% PFA and mounted using Prolong Gold Antifade (Invitrogen). Images were taken on a confocal LSM710 microscope (Zeiss).
To investigate the effect of the different SM species in these organelles, several lysosomal-related parameters were measured. To analyze lysosomal permeabilization, the lysotracker red dye, which fluoresces in acidic environments was utilized.
Another data set deals with ASM knock-out mice. Description: Lipidomic analysis of brain, liver and plasma of ASM knock-out mice after i.p. rhASM. It counts as in vivo, mouse. Here is the method: Mouse brain and liver samples were homogenized in water (1 g wet tissue/4 mL). SM was extracted from 50 μL of homogenate or 50 μL of plasma in the presence of SM (17:0) as internal standard using Bligh-Dyer lipid extraction (Bligh and Dyer, 1959). Sample analysis was performed in a Shimadzu 20AD HPLC system coupled to a 6500QTRAP+ mass spectrometer (AB Sciex, Framingham, MA) operated in positive multiple reaction monitoring mode. Data processing was conducted with Analyst 1.6.3 (AB Sciex). Data were reported as the peak area ratios of the analytes in sample to the internal standard.
To identify potential biomarkers of brain pathology in ASMD subjects a study was conducted in ASM knock-out mice. In brief, ASM knock-out mice received an i.p. injection of rhASM at 1 mg/kg every other day for 14 days. Results were compared to previous lipidomic analysis done on WT/ASMko mice at 2, 4, and 6 months.
Lipidomic analysis were completed on the brain, liver, and plasma of the treated mice. Analyzed lipids comprised: SM, LSM, SM OH, and m/z 805 (a phosphocholine compound). Total SM levels post i.p. rhASM injection are shown in FIG. 13A and below at Table 3.

The mark [6] stands for this setting: 48 hours, wt neurons, Mander's coefficient.
The mark [7] stands for this setting: Liver, i.p. 1 mg/kg every other day for 14 days.
Where [8] appears, read: Plasma, i.p. 1 mg/kg every other day for 14 days.

The source of these data is US20260286363A1, “COMPOSITIONS AND METHODS FOR DIAGNOSING, TREATING, AND PREVENTING LYSOSOMAL STORAGE DISEASES” (Wylder Nation Foundation, priority 2022, published 2026).

Read-outs that look alike come from different tables or passages of the source.

As for `Cl.Cl.O=C(/C=C/c1ccc(/C=C/C(=O)Nc2ccc(C3=NCCN3)cc2)cc1)Nc1ccc(C2=NCCN2)cc1` [GW4869], the “neuronal death upon SM16:0 addition in the presence of acid and neutral sphingomyelinase inhibitors (MTT)” value with cultured wt neurons [1] was “not prevented”.

`CCCCCCCCCCCCC/C=C/[C@@H](O)[C@@H](N)COP(=O)([O-])OCC[N+](C)(C)C` [LysoSM, lyso-sphingomyelin]: the “deleterious effects on cultured neurons (MTT viability)” value in the data set with cultured wt neurons [1] (addition to cultured neurons) is “did not find deleterious effects”.

Regarding `CCCCCCCCCCCCC/C=C/[C@@H](O)[C@H](COP(=O)([O-])OCC[N+](C)(C)C)NC(=O)CCCCCCCCCCCCCCC` [SM16:0, sphingomyelin 16:0], the “accumulation in lysosomes (pSM16:0 colocalization with Lamp1)” value with cultured wt neurons [2] (wt neurons treated with ASM inhibitor desipramine) is given as “accumulates in lysosomes”. For the same molecule, the “substrate preference of ASM (SM16:0 vs SMb)” value at ASM is reported as “ASM has a preference to degrade SM16:0”. For the same molecule, the “elevation in ROS levels (DHR staining)” value in the data set on wt neurons came to 1.6 fold. In addition, the “reduction of neuronal survival / cell death (MTT)” value with cultured wt neurons [1] (mouse, cultured neurons) was 50%. Besides, in the data set on cultured wt neurons [1], the “neuronal death upon SM16:0 addition in the presence of acid and neutral sphingomyelinase inhibitors (MTT)” value is recorded as “induces cell death”. For the same molecule, in data set [3], the “increase of total SM levels” value stood at 6.6 fold and the “relative abundance of the added SM species, of the total SM” value (from here on “relative abundance”) worked out at 88%. Besides, in the data set on cultured wt neurons [4], the “lysosomal exocytosis (surface staining of LAMP1)” value is “induced lysosomal exocytosis”. Besides, the “lysosomal permeabilization (change of Lysotracker staining from dotty to diffuse cytosolic pattern)” value in data set [5] was “indicative of lysosomal permeabilization”.

Turning to `CCCCCCCCCCCCC/C=C/[C@@H](O)[C@H](COP(=O)([O-])OCC[N+](C)(C)C)NC(=O)CCCCCCCCCCCCCCCCC` [SM18:0, sphingomyelin 18:0], in the data set with cultured wt neurons [1] (mouse, cultured neurons), the “reduction of neuronal survival / cell death (MTT)” value turned out to be 25%. In data set [3], the “increase of total SM levels” value is on record as 3.5 fold and the “relative abundance” value is on record as 82%.

Take propargyl SM16:0 [pSM16:0]: in the data set on cultured wt neurons [2] (setting [6]), the “co-localization with early endosome marker EEA1” value is recorded as “low degree of co-localization”, the “co-localization with mitochondrial marker TOM20” value was “low degree of co-localization”, the “co-localization with plasma membrane marker Thy-1” value is “low degree of co-localization” and the “co-localization with synaptic marker PSD95” value is given as “low degree of co-localization”. In the data set on cultured wt neurons [2] (setting [6]), the “colocalization with Golgi apparatus marker GM130” value is given as “high colocalization” and the “colocalization with endolysosomal marker LAMP1” value is listed as “high colocalization”.

Turning to sphingomyelin 24:1 [SM24:1], in the data set on cultured wt neurons [1], the “reduction of neuronal survival / cell death (MTT)” value is “no deleterious effects”. In data set [3], the “increase of total SM levels” value is recorded as “not significant” and the “relative abundance” value came to 30%.

B1: rhASM: recombinant human acid sphingomyelinase (protein, UniProt P17405 47-631, looked up)
Sphingomyelin …: LALSDSRVLWAPAEAHPLSPQGHPARLHRIVPRLRDVFGWGNLTCPICKGLFTAINLGLKKEPNVARVGSVAIKLCNLLKIAPPAVCQSIVHLFEDDMVEVWRRSVLSPSEACGLLLGSTCGHWDIFSSWNISLPTVPKPPPKPPSPPAPGAPVSRILFLTDLHWDHDYLEGTDPDCADPLCCRRGSGLPPASRPGAGYWGEYSKCDLPLRTLESLLSGLGPAGPFDMVYWTGDIPAHDVWHQTRQDQLRALTTVTALVRKFLGPVPVYPAVGNHESTPVNSFPPPFIEGNHSSRWLYEAMAKAWEPWLPAEALRTLRIGGFYALSPYPGLRLISLNMNFCSRENFWLLINSTDPAGQLQWLVGELQAAEDRGDKVHIIGHIPPGHCLKSWSWNYYRIVARYENTLAAQFFGHTHVDEFEVFYDEETLSRPLAVAFLAPSATTYIGLNPGYRVYQIDGNYSGSSHVVLDHETYILNLTQANIPGAIPHWQLLYRARETYGLPNTLPTAWHNLVYRMRGDMQLFQTFWFLYHKGHPPSEPCGTPCRLATLCAQLSARADSPALCRHLMPDGSLPEAQSLWPRPLFC
As to B1, the “SM 16:0 level decrease after i.p. rhASM injection” value is on record as “does not change” in the data set on ASM knock-out mice (Brain), 15% with ASM knock-out mice (Liver) and 35% in the data set on ASM knock-out mice (Plasma). The “Total LSM levels, % Decrease with rhASM injection” value is “does not change” in the data set on ASM knock-out mice (Brain, i.p. 1 mg/kg every other day for 14 days) and 70% in the data set with ASM knock-out mice (setting [8]). In addition, the entries for the “Total SM levels, % Decrease with rhASM injection” value with ASM knock-out mice (setting [7]) and with ASM knock-out mice (setting [8]) were 22% and 31%, respectively. Besides, the “Total m/z 805 levels, % Decrease with rhASM injection” value with ASM knock-out mice (setting [7]) came out at 70%. Besides, the “SM OH levels after i.p. rhASM injection” value in the data set on ASM knock-out mice (brain, liver, plasma) is reported as “reduction in all samples tested”. Moreover, in the data set on ASM knock-out mice (brain, liver, plasma), the “m/z 805 levels after rhASM injections, across tissues” value is on record as “decreases only in the liver”.
